Assay results reported in patent US11970474B2, “Substituted benzodiazoles and use thereof in therapy” (THOMAS HELLEDAYS STIFTELSE FÖR MEDICINSK FORSKNING, priority 2018, dated 2024).
Where two headings read alike, the source gives them in different places.

What was measured:
[1] = target: OGG1 (Homo sapiens (Human), UniProt O15527); experiment: In vitro OGG1 activity assay; type: biochemical; conditions: 800 pM OGG1 enzyme, 2 nM human APEX1, 10 nM 8-oxoA:C substrate
How it was run: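 Fluorescence-release assay on a duplex oligonucleotide carrying an OGG1 substrate base beside a fluorophore, quenched from the complementary strand. Excess APEX1 cleaves the abasic site left by base excision, melting the duplex and unquenching the fluorophore. Compounds in DMSO were dispensed before enzyme and substrate, and fluorescein signal was read.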

[2] = test system: CCL2; experiment: Mouse CCL2 assay in MLE12 cells; type: cell-based; conditions: MLE12 cells, TNF-α 20 ng/ml, supernatant after 30 hours, HTRF, read-out: CCL2 (EC50)
How it was run: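 MLE12 mouse lung epithelial cells (7500/well, DMEM/F12 with 5% FBS) preincubated 1 h with compounds (6-point dose-response, duplicate), then stimulated with TNF-α (final 20 ng/ml) for 30 h at 37 °C. Secreted CCL2 measured by HTRF sandwich immunoassay (Ex330/Em620, 665 nm) against standard curve; IC50 from delta ratios.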

[3] = test system: MLE12 cells; experiment: Cell viability assay in MLE12 cells (resazurin); type: cell-based, mouse; conditions: TNF-α 20 ng/ml, resazurin added after 24 hours culture
How it was run: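 MLE12 cells (7500 cells/well) were seeded onto 11-point duplicate compound dose-responses, with TNF-α (final 20 ng/ml) added after 1 hour at 37° C. After 24 hours, resazurin was added for 6 hours and resorufin fluorescence read (ex544 nm/em595 nm). EC50 values were calculated by curve fitting.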

Chain of OGG1 (O15527 whole entry): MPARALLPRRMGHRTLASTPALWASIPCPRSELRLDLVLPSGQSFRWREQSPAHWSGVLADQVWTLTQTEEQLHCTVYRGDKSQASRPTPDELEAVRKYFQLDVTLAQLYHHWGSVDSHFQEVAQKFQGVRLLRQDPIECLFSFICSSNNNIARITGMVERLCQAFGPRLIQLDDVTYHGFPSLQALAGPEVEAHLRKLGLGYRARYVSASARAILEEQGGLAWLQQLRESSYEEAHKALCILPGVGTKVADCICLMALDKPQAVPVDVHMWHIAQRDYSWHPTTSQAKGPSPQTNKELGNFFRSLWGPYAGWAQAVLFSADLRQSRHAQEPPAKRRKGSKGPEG

Row | SMILES | IC50 [1] [µM] | EC50 [2] [µM] | EC50 ([2]; Mus musculus, MLE12, 30 h) [µM] | IC50 ([3]; Mus musculus, MLE12, 24 h) [µM] | IC50 [3] [µM]
1 | COc1cc(NC(=O)[C@H]2CC[C@@H](n3c(=O)[nH]c4c(C(=O)NCCN(C)C)cccc43)CC2)ccc1C [Example 228, N-[2-(Dimethylamino)ethyl]-2-oxo-1-[cis-4-[(3-methoxy-4-methylphenyl)carbamoyl]cyclohexyl]-2,3-dihydro-1H-1,3-benzodiazole-4-carboxamide] | 0.00015 | 11.2 | 20.8 | 16.4 | 10.5
2 | COc1cc(NC(=O)[C@H]2CC[C@@H](n3c(=O)[nH]c4c(N(C)CCN(C)C)cccc43)CC2)ccc1C [Example 229, Cis-4-(4-{[2-(dimethylamino)ethyl](methyl)amino}-2-oxo-2,3-dihydro-1H-1,3-benzodiazol-1-yl)-N-(3-methoxy-4-methylphenyl)cyclohexane-1-carboxamide] | 0.0298 | 6.93 | 12.2 | 9.19 | 6.67
3 | COc1ccc(CSc2cccc3c2[nH]c(=O)n3[C@H]2CC[C@@H](C(=O)Nc3ccc(C)c(OC)c3)CC2)cc1 [Example 230, Cis-N-(3-methoxy-4-methylphenyl)-4-(4-{[(4-methoxyphenyl)methyl]sulfanyl}-2-oxo-2,3-dihydro-1H-1,3-benzodiazol-1-yl)cyclohexane-1-carboxamide] | 0.606 | – | 5.84 | 2.58 | –
4 | COc1cc(NC(=O)[C@H]2CC[C@@H](n3c(=O)[nH]c4c(S)cccc43)CC2)ccc1C [Example 237, Cis-N-(3-methoxy-4-methylphenyl)-4-(2-oxo-4-sulfanyl-2,3-dihydro-1H-1,3-benzodiazol-1-yl)cyclohexane-1-carboxamide] | 0.0671 | – | 31.7 | 4.54 | –
5 | COc1cc(NC(=O)[C@H]2CC[C@@H](n3c(=O)[nH]c4cc(C#N)ccc43)CC2)ccc1C [Example 238, Cis-4-(5-cyano-2-oxo-2,3-dihydro-1H-1,3-benzodiazol-1-yl)-N-(3-methoxy-4-methylphenyl)cyclohexane-1-carboxamide] | 0.0409 | – | 27.1 | 9.18 | –
6 | COc1cc(NC(=O)[C@H]2CC[C@@H](n3c(=O)[nH]c4c(N5CCNCC5)cccc43)CC2)ccc1C [Example 240, Cis-N-(3-methoxy-4-methylphenyl)-4-[2-oxo-4-(piperazin-1-yl)-2,3-dihydro-1H-1,3-benzodiazol-1-yl]cyclohexane-1-carboxamide] | 0.0153 | – | 21.5 | 16.1 | –
7 | COc1cc(NC(=O)[C@H]2CC[C@@H](n3c(=O)[nH]c4c(N(C)Cc5ccccc5)cccc43)CC2)ccc1C [Example 243, Cis-4-{4-[benzyl(methyl)amino]-2-oxo-2,3-dihydro-1H-1,3-benzodiazol-1-yl}-N-(3-methoxy-4-methylphenyl)cyclohexane-1-carboxamide] | 1.47 | – | 14.7 | 5.74 | –
8 | CNc1cccc2c1[nH]c(=O)n2[C@H]1CC[C@@H](C(=O)Nc2ccc(C)c(OC)c2)CC1 [Example 244, Cis-N-(3-methoxy-4-methylphenyl)-4-[4-(methylamino)-2-oxo-2,3-dihydro-1H-1,3-benzodiazol-1-yl]cyclohexane-1-carboxamide] | 0.0607 | – | 37.3 | 13.7 | –
9 | COCCOc1cccc2c1[nH]c(=O)n2[C@H]1CC[C@@H](C(=O)Nc2ccc(C)c(OC)c2)CC1 [Example 245, Cis-N-(3-methoxy-4-methylphenyl)-4-[4-(2-methoxyethoxy)-2-oxo-2,3-dihydro-1H-1,3-benzodiazol-1-yl]cyclohexane-1-carboxamide] | 2.76 | – | > 33 | 12.5 | –
10 | COCC(=O)Nc1cccc2c1[nH]c(=O)n2[C@H]1CC[C@@H](C(=O)Nc2ccc(C)c(OC)c2)CC1 [Example 250, Cis-N-(3-methoxy-4-methylphenyl)-4-[4-(2-methoxyacetamido)-2-oxo-2,3-dihydro-1H-1,3-benzodiazol-1-yl]cyclohexane-1-carboxamide] | 0.0235 | – | 39.9 | 26 | –
11 | Cn1c(NC(=O)[C@H]2CC[C@@H](n3c(=O)[nH]c4c(Br)cccc43)CC2)nc2ccccc21 [Example 257, Cis-4-(4-bromo-2-oxo-2,3-dihydro-1H-1,3-benzodiazol-1-yl)-N-(1-methyl-1H-1,3-benzodiazol-2-yl)cyclohexane-1-carboxamide] | 0.0269 | – | 34.3 | 19.9 | –
12 | COC(=O)c1cccc2c1[nH]c(=O)n2[C@H]1CC[C@@H](C(=O)Nc2ccc(C)c(OC)c2)CC1 [Example 258, Methyl 2-oxo-1-[cis-4-[(3-methoxy-4-methylphenyl)carbamoyl]cyclohexyl]-2,3-dihydro-1H-1,3-benzodiazole-4-carboxylate] | 0.00583 | – | 42.7 | 11.3 | –
13 | COc1cc(NC(=O)[C@H]2CC[C@@H](n3c(=O)[nH]c4c(C(=O)N5CCOCC5)cccc43)CC2)ccc1C [Example 262, Cis-N-(3-methoxy-4-methylphenyl)-4-[4-(morpholine-4-carbonyl)-2-oxo-2,3-dihydro-1H-1,3-benzodiazol-1-yl]cyclohexane-1-carboxamide] | 0.348 | – | > 100 | 19.7 | –
14 | COc1cc(NC(=O)[C@H]2CC[C@@H](n3c(=O)[nH]c4c(C(=O)NCCO)cccc43)CC2)ccc1C [Example 263, N-(2-Hydroxyethyl)-2-oxo-1-[cis-4-[(3-methoxy-4-methylphenyl)carbamoyl]cyclohexyl]-2,3-dihydro-1H-1,3-benzodiazole-4-carboxamide] | 0.00271 | – | > 33 | 27.2 | –

Continued, in another order:

Row | IC50 [1] [µM] | EC50 [2] [µM] | EC50 ([2]; Mus musculus, MLE12, 30 h) [µM] | SMILES | IC50 ([3]; Mus musculus, MLE12, 24 h) [µM] | IC50 [3] [µM]
15 | 0.0824 | – | 34.1 | COc1cc(NC(=O)[C@H]2CC[C@@H](n3c(=O)[nH]c4c(C(=O)N5CC[C@@H](N(C)C)C5)cccc43)CC2)ccc1C [Example 267, Cis-4-{4-[(3R)-3-(dimethylamino)pyrrolidine-1-carbonyl]-2-oxo-2,3-dihydro-1H-1,3-benzodiazol-1-yl}-N-(3-methoxy-4-methylphenyl)cyclohexane-1-carboxamide] | 17.9 | –
16 | 0.153 | – | > 100 | COc1cc(NC(=O)[C@H]2CC[C@@H](n3c(=O)[nH]c4c(C(=O)N5CCN(C)CC5)cccc43)CC2)ccc1C [Example 268, Cis-N-(3-methoxy-4-methylphenyl)-4-[4-(4-methylpiperazine-1-carbonyl)-2-oxo-2,3-dihydro-1H-1,3-benzodiazol-1-yl]cyclohexane-1-carboxamide] | 13.4 | –
17 | 0.00039 | – | 32.9 | COc1cc(NC(=O)[C@H]2CC[C@@H](n3c(=O)[nH]c4c(C(=O)NCc5ncc[nH]5)cccc43)CC2)ccc1C [Example 270, N-[(1H-Imidazol-2-yl)methyl]-2-oxo-1-[cis-4-[(3-methoxy-4-methylphenyl)carbamoyl]cyclohexyl]-2,3-dihydro-1H-1,3-benzodiazole-4-carboxamide] | 16.8 | –
18 | 0.056 | – | 9.45 | COc1cc(NC(=O)[C@H]2CC[C@@H](n3c(=O)[nH]c4c(C(=O)N5CCC[C@H]5CN5CCCC5)cccc43)CC2)ccc1C [Example 271, Cis-N-(3-methoxy-4-methylphenyl)-4-{2-oxo-4-[(2S)-2-[(pyrrolidin-1-yl)methyl]pyrrolidine-1-carbonyl]-2,3-dihydro-1H-1,3-benzodiazol-1-yl}cyclohexane-1-carboxamide] | 4.65 | –
19 | 0.00411 | – | 35.7 | COc1cc(NC(=O)[C@H]2CC[C@@H](n3c(=O)[nH]c4c(C(=O)NCCN5CCOCC5)cccc43)CC2)ccc1C [Example 272, N-[2-(Morpholin-4-yl)ethyl]-2-oxo-1-[cis-4-[(3-methoxy-4-methylphenyl)carbamoyl]cyclohexyl]-2,3-dihydro-1H-1,3-benzodiazole-4-carboxamide] | 27.1 | –
20 | 0.0175 | – | 32.6 | COc1cc(NC(=O)[C@H]2CC[C@@H](n3c(=O)[nH]c4c(C(=O)NCC5CCCO5)cccc43)CC2)ccc1C (stereo partly drawn) [Example 273, 2-Oxo-N-[(oxolan-2-yl)methyl]-1-[cis-4-[(3-methoxy-4-methylphenyl)carbamoyl]cyclohexyl]-2,3-dihydro-1H-1,3-benzodiazole-4-carboxamide] | 19.2 | –
21 | 0.0921 | – | 39 | COc1cc(NC(=O)[C@H]2CC[C@@H](n3c(=O)[nH]c4c(C(=O)N5CCNC(C(F)(F)F)C5)cccc43)CC2)ccc1C (stereo partly drawn) [Example 274, Cis-N-(3-methoxy-4-methylphenyl)-4-{2-oxo-4-[3-(trifluoromethyl)piperazine-1-carbonyl]-2,3-dihydro-1H-1,3-benzodiazol-1-yl}cyclohexane-1-carboxamide] | 18.1 | –
22 | 0.0029 | – | 54 | COc1cc(NC(=O)[C@H]2CC[C@@H](n3c(=O)[nH]c4c(C(=O)NCc5ncccn5)cccc43)CC2)ccc1C [Example 276, 2-Oxo-N-[(pyrimidin-2-yl)methyl]-1-[cis-4-[(3-methoxy-4-methylphenyl)carbamoyl]cyclohexyl]-2,3-dihydro-1H-1,3-benzodiazole-4-carboxamide] | 16.9 | –
